The values that follow come from US10519177B2, “Heterocyclic compounds and uses thereof” (Plexxikon Inc., priority 2013, dated 2019).

SMILES strings stand for the structures.

For one assay, the system named is MV-4-11 cells. Nature of the assay: Oncology cell growth assay MV-4-11 (CellTiter Glo). In kind it is cell-based. Particulars: Homo sapiens, MV4-11, 72 h; MV-4-11, 3d growth; read-out: Cell activity (IC50 μM) MV-4-11 3d-Growth. In outline: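 MV-4-11 AML cells (MLL-AF4), 3000 per well, exposed to 8-point 1:3 compound titration from 10 μM top concentration (0.2% DMSO) for 72 h. Viability by CellTiter Glo luminescence, normalized to DMSO controls; pIC50 from four-parameter curve fit.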

The target of a further assay is BRD4-BD12 (1-477) (Homo sapiens (Human), UniProt O60885). Briefly: Alphascreen binding assay BRD4-BD12. Particulars: BRD4(1 2) H4; read-out: Biochemical activity (IC50 μM) BRD4(1 2) H4. In outline:
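First, compound was preincubated 1 h at room temperature with the His-tagged BRD4 protein (BD1 44-164 or tandem BD12 1-477) and acetylated H4 peptide. Next, donor and acceptor beads were added at 7.5 μg/ml final. After 30 min, AlphaScreen emission was recorded.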

The term IC50 denotes the concentration that gives 50% inhibition. For the compound `Cc1noc(C)c1-c1cnc2c(-c3ccc(C(=O)O)cc3)cn(C(c3ccccn3)C3CCCCC3)c2c1` (stereo not drawn) [P-1014, 4-[1-[cyclohexyl(2-pyridyl)methyl]-6-(3,5-dimethylisoxazol-4-yl)pyrrolo[3,2-b]pyridin-3-yl]benzoic acid], the IC50 with MV-4-11 cells and on BRD4-BD12 (1-477) was less than 1 µM in each case.

As for `Cc1noc(C)c1-c1cnc2c(-c3ccc(CC(=O)O)cc3)cn(C(c3ccccn3)C3CCC3)c2c1` (stereo not drawn) [P-1015, 2-[4-[1-[cyclobutyl(2-pyridyl)methyl]-6-(3,5-dimethylisoxazol-4-yl)pyrrolo[3,2-b]pyridin-3-yl]phenyl]acetic acid], the IC50 in the assay on MV-4-11 cells and at BRD4-BD12 (1-477) was less than 1 µM in each case.

`COC(=O)c1ccc(-c2cn(C(c3ccccn3)C3CCCCC3)c3cc(-c4c(C)noc4C)cnc23)cc1` (stereo not drawn) [P-1016, methyl 4-[1-[cyclohexyl(2-pyridyl)methyl]-6-(3,5-dimethylisoxazol-4-yl)pyrrolo[3,2-b]pyridin-3-yl]benzoate]: the concentration for half-maximal inhibition (IC50) with MV-4-11 cells and on BRD4-BD12 (1-477) was less than 1 µM in each case.

On to `COC(=O)Cc1ccc(-c2cn(C(c3ccccn3)C3CCCCC3)c3cc(-c4c(C)noc4C)cnc23)cc1` (stereo not drawn) [P-1017, methyl 2-[4-[1-[cyclohexyl(2-pyridyl)methyl]-6-(3,5-dimethylisoxazol-4-yl)pyrrolo[3,2-b]pyridin-3-yl]phenyl]acetate], for which the concentration for half-maximal inhibition (IC50) in the assay on MV-4-11 cells and at BRD4-BD12 (1-477) was less than 1 µM throughout.

In the case of `Cc1noc(C)c1-c1cnc2c(-c3ccc(CC(=O)O)cc3)cn(C(c3ccccn3)C3CCCCC3)c2c1` (stereo not drawn) [P-1018, 2-[4-[1-[cyclohexyl(2-pyridyl)methyl]-6-(3,5-dimethylisoxazol-4-yl)pyrrolo[3,2-b]pyridin-3-yl]phenyl]acetic acid], the IC50 in the assay with MV-4-11 cells and at BRD4-BD12 (1-477) was less than 1 µM in each case.

`Cc1ccc(-c2cn([C@@H](C)c3ccccn3)c3cc(-c4c(C)noc4C)cnc23)cn1` [P-1019, 3,5-dimethyl-4-[3-(6-methyl-3-pyridyl)-1-[(1S)-1-(2-pyridyl)ethyl]pyrrolo[3,2-b]pyridin-6-yl]isoxazole]: the 50% inhibitory concentration (IC50) in the assay with MV-4-11 cells and at BRD4-BD12 (1-477) was less than 1 µM each time.

Regarding `Cc1noc(C)c1-c1cnc2c(-c3ccc(C(C)(C)C(=O)O)cc3)cn([C@@H](C)c3ccccn3)c2c1` [P-1021, 2-[4-[6-(3,5-dimethylisoxazol-4-yl)-1-[(1S)-1-(2-pyridyl)ethyl]pyrrolo[3,2-b]pyridin-3-yl]phenyl]-2-methyl-propanoic acid], the concentration for half-maximal inhibition (IC50) in the assay with MV-4-11 cells and at BRD4-BD12 (1-477) was less than 1 µM each time.

Take `CC[C@@H](c1ccccn1)n1cc(-c2ccc(C(=O)O)c(F)c2)c2ncc(-c3c(C)noc3C)cc21` [P-1022, 4-[6-(3,5-dimethylisoxazol-4-yl)-1-[(1S)-1-(2-pyridyl)propyl]pyrrolo[3,2-b]pyridin-3-yl]-2-fluoro-benzoic acid]: the half-inhibitory concentration (IC50) in the assay on MV-4-11 cells and on BRD4-BD12 (1-477) was less than 1 µM each time.

In the case of `CC[C@@H](c1ccccn1)n1cc(-c2ccc(F)c(C(=O)O)c2)c2ncc(-c3c(C)noc3C)cc21` [P-1023, 5-[6-(3,5-dimethylisoxazol-4-yl)-1-[(1S)-1-(2-pyridyl)propyl]pyrrolo[3,2-b]pyridin-3-yl]-2-fluoro-benzoic acid], the 50% inhibitory concentration (IC50) with MV-4-11 cells and on BRD4-BD12 (1-477) was less than 1 µM each time.

On to `CC[C@@H](c1ccccn1)n1cc(-c2ccc(C)c(C(=O)O)c2)c2ncc(-c3c(C)noc3C)cc21` [P-1024, 5-[6-(3,5-dimethylisoxazol-4-yl)-1-[(1S)-1-(2-pyridyl)propyl]pyrrolo[3,2-b]pyridin-3-yl]-2-methyl-benzoic acid], for which the IC50 with MV-4-11 cells and on BRD4-BD12 (1-477) was less than 1 µM throughout.

For the compound `CC[C@@H](c1ccccn1)n1cc(-c2ccc(C(=O)O)cc2F)c2ncc(-c3c(C)noc3C)cc21` [P-1025, 4-[6-(3,5-dimethylisoxazol-4-yl)-1-[(1S)-1-(2-pyridyl)propyl]pyrrolo[3,2-b]pyridin-3-yl]-3-fluoro-benzoic acid], the half-inhibitory concentration (IC50) in the assay on MV-4-11 cells and at BRD4-BD12 (1-477) was less than 1 µM each time.

Take `CC[C@@H](c1ccccn1)n1cc(-c2ccc(C(=O)O)c(C)c2)c2ncc(-c3c(C)noc3C)cc21` [P-1026, 4-[6-(3,5-dimethylisoxazol-4-yl)-1-[(1S)-1-(2-pyridyl)propyl]pyrrolo[3,2-b]pyridin-3-yl]-2-methyl-benzoic acid]: the concentration for half-maximal inhibition (IC50) in the assay with MV-4-11 cells and on BRD4-BD12 (1-477) was less than 1 µM each time.

`CC[C@@H](c1ccccn1)n1cc(-c2ccc(C(=O)O)c(Cl)c2)c2ncc(-c3c(C)noc3C)cc21` [P-1028, 2-chloro-4-[6-(3,5-dimethylisoxazol-4-yl)-1-[(1S)-1-(2-pyridyl)propyl]pyrrolo[3,2-b]pyridin-3-yl]benzoic acid]: the IC50 with MV-4-11 cells and at BRD4-BD12 (1-477) was less than 1 µM in each case.

Consider `CC[C@@H](c1ccccn1)n1cc(-c2ccc(C(=O)O)cc2Cl)c2ncc(-c3c(C)noc3C)cc21` [P-1029, 3-chloro-4-[6-(3,5-dimethylisoxazol-4-yl)-1-[(1S)-1-(2-pyridyl)propyl]pyrrolo[3,2-b]pyridin-3-yl]benzoic acid], for which the IC50 in the assay with MV-4-11 cells and on BRD4-BD12 (1-477) was less than 1 µM in each case.

Consider `Cc1noc(C)c1-c1ccc2c(-c3ccc(C(=O)O)cc3)cn([C@@H](C)c3ccccn3)c2c1` [P-1030, 4-[6-(3,5-dimethylisoxazol-4-yl)-1-[(1S)-1-(2-pyridyl)ethyl]indol-3-yl]benzoic acid], for which the IC50 with MV-4-11 cells and on BRD4-BD12 (1-477) was less than 1 µM throughout.

For `Cc1noc(C)c1-c1ccc2c(-c3ccc(CC(=O)O)cc3)cn([C@@H](C)c3ccccn3)c2c1` [P-1031, 2-[4-[6-(3,5-dimethylisoxazol-4-yl)-1-[(1S)-1-(2-pyridyl)ethyl]indol-3-yl]phenyl]acetic acid], the IC50 with MV-4-11 cells and on BRD4-BD12 (1-477) was less than 1 µM throughout.

`Cc1noc(C)c1-c1cnc2c(-c3ccc(C4(C(=O)O)CC4)cc3)cn([C@H](c3ccccn3)C3CC3)c2c1` [P-1032, 1-[4-[1-[(S)-cyclopropyl(2-pyridyl)methyl]-6-(3,5-dimethylisoxazol-4-yl)pyrrolo[3,2-b]pyridin-3-yl]phenyl]cyclopropanecarboxylic acid]: the IC50 with MV-4-11 cells and on BRD4-BD12 (1-477) was less than 1 µM in each case.

In the case of `Cc1noc(C)c1-c1cnc2c(I)cn(C(c3ccccn3)C3CCOCC3)c2c1` (stereo not drawn) [P-1034, 4-[3-iodo-1-[2-pyridyl(tetrahydropyran-4-yl)methyl]pyrrolo[3,2-b]pyridin-6-yl]-3,5-dimethyl-isoxazole], the half-maximal inhibitory concentration (IC50) with MV-4-11 cells and at BRD4-BD12 (1-477) was less than 1 µM in each case.

As for `COC(=O)c1ccc(-c2cn(C(c3ccccn3)C3CCOCC3)c3cc(-c4c(C)noc4C)cnc23)cc1` (stereo not drawn) [P-1035, methyl 4-[6-(3,5-dimethylisoxazol-4-yl)-1-[2-pyridyl(tetrahydropyran-4-yl)methyl]pyrrolo[3,2-b]pyridin-3-yl]benzoate], the half-maximal inhibitory concentration (IC50) in the assay with MV-4-11 cells and at BRD4-BD12 (1-477) was less than 1 µM each time.

For `Cc1noc(C)c1-c1cnc2c(-c3ccc(C(=O)O)cc3)cn(C(c3ccccn3)C3CCOCC3)c2c1` (stereo not drawn) [P-1036, 4-[6-(3,5-dimethylisoxazol-4-yl)-1-[2-pyridyl(tetrahydropyran-4-yl)methyl]pyrrolo[3,2-b]pyridin-3-yl]benzoic acid], the IC50 in the assay on MV-4-11 cells and on BRD4-BD12 (1-477) was less than 1 µM throughout.

Regarding `Cc1noc(C)c1-c1cnc2c(-c3ccc(C(=O)O)c(F)c3)cn(C(c3ccccn3)C3CCCC3)c2c1` (stereo not drawn) [P-1037, 4-[1-[cyclopentyl(2-pyridyl)methyl]-6-(3,5-dimethylisoxazol-4-yl)pyrrolo[3,2-b]pyridin-3-yl]-2-fluoro-benzoic acid], the half-maximal inhibitory concentration (IC50) in the assay with MV-4-11 cells and at BRD4-BD12 (1-477) was less than 1 µM in each case.

In the case of `Cc1cc(-c2cn(C(c3ccccn3)C3CCCC3)c3cc(-c4c(C)noc4C)cnc23)ccc1C(=O)O` (stereo not drawn) [P-1038, 4-[1-[cyclopentyl(2-pyridyl)methyl]-6-(3,5-dimethylisoxazol-4-yl)pyrrolo[3,2-b]pyridin-3-yl]-2-methyl-benzoic acid], the IC50 in the assay on MV-4-11 cells and at BRD4-BD12 (1-477) was less than 1 µM each time.

In the case of `COc1ncc(-c2cn(C(c3ccccc3)c3ccccn3)c3cc(-c4c(C)noc4C)ccc23)cn1` (stereo not drawn) [P-1039, 4-[3-(2-methoxypyrimidin-5-yl)-1-[phenyl(2-pyridyl)methyl]indol-6-yl]-3,5-dimethyl-isoxazole], the IC50 in the assay with MV-4-11 cells and on BRD4-BD12 (1-477) was less than 1 µM throughout.

With `Cc1noc(C)c1-c1ccc2c(-c3cnn(C)c3)cn(C(c3ccccc3)c3ccccn3)c2c1` (stereo not drawn) [P-1040, 3,5-dimethyl-4-[3-(1-methylpyrazol-4-yl)-1-[phenyl(2-pyridyl)methyl]indol-6-yl]isoxazole], the IC50 in the assay with MV-4-11 cells and at BRD4-BD12 (1-477) was less than 1 µM in each case.

Turning to `Cc1ccc(-c2cn(C(c3ccccc3)c3ccccn3)c3cc(-c4c(C)noc4C)ccc23)cn1` (stereo not drawn) [P-1041, 3,5-dimethyl-4-[3-(6-methyl-3-pyridyl)-1-[phenyl(2-pyridyl)methyl]indol-6-yl]isoxazole], the half-maximal inhibitory concentration (IC50) in the assay with MV-4-11 cells and on BRD4-BD12 (1-477) was less than 1 µM each time.

Take `Cc1noc(C)c1-c1ccc2c(-c3cnc(C4CC4)nc3)cn(C(c3ccccc3)c3ccccn3)c2c1` (stereo not drawn) [P-1042, 4-[3-(2-cyclopropylpyrimidin-5-yl)-1-[phenyl(2-pyridyl)methyl]indol-6-yl]-3,5-dimethyl-isoxazole]: the IC50 with MV-4-11 cells and on BRD4-BD12 (1-477) was less than 1 µM throughout.

`Cc1noc(C)c1-c1ccc2c(-c3ccc(C(=O)O)c(F)c3)cn(C(c3ccccc3)c3ccccn3)c2c1` (stereo not drawn) [P-1043, 4-[6-(3,5-dimethylisoxazol-4-yl)-1-[phenyl(2-pyridyl)methyl]indol-3-yl]-2-fluoro-benzoic acid]: the IC50 with MV-4-11 cells and on BRD4-BD12 (1-477) was less than 1 µM throughout.
